For data set [1], the system named is L. amazonensis promastigotes. Description: Inhibition of L. amazonensis promastigotes, MTT method. The format is cell-based, Leishmania amazonensis. Here is the method: The MHOM/BR/pH8 strain was transferred to the NNN solid medium (Novy-MacNeal-Nicolle) for 48 h at 24 °C.
(Sigma-Aldrich) method was used. This method evaluates the cell viability by the activity of mitochondrial succinate dehydrogenase enzyme that cleaves the tetrazolium salt to form formazan crystals in living cells. For the cultures of P. falciparum-infected erythrocytes, the IC50 were determined by optical microscopy.
Then, 10 μL of MTT solution (5 mg/mL) was added to all wells and the cultures were re-incubated at the same condition for 4 h, but protected from light. […] The results were expressed in percentage.
Background: Tetrazolium dyes change colour on reduction, which living cells bring about.

The test system of data set [2] is P. falciparum-infected erythrocytes. Description: Growth inhibition of P. falciparum-infected erythrocytes, optical microscopy. It is filed as cell-based. The conditions noted are these: Plasmodium falciparum, Erythrocyte; for inhibition at 0.008 µg/mL: positive control, 8 ng/mL. How it is done:
The Pf/Unb169 strain, kept under cryopreservation was culture together with O^+ erythrocytes in RPMI 1640 medium, supplemented with hypoxanthine (0.25 mg/dL), 10% of human serum, and gentamicin ([…]), at 37 °C in air with 5% CO2. For the assays, a suspension with 3% of hematocrit and 0.6% of infected erythrocytes was prepared.
To assess inhibitory or cytotoxic concentrations of the compounds (1–5), able to eliminate 50% of the cells in the cultures of L. amazonensis (IC50) and cytotoxic concentrations (CC50) in the cultures of peritoneal cell, MTT [3-(4,5-dimethylthiazol-2-yl)-2,5-diphenyltetrazolium bromide] (Sigma-Aldrich) method was used. This method evaluates the cell viability by the activity of mitochondrial succinate dehydrogenase enzyme that cleaves the tetrazolium salt to form formazan crystals in living cells. For the cultures of P. falciparum-infected erythrocytes, the IC50 were determined by optical microscopy. The concentrations for the compounds tested were calculated in μg/mL (ranging from 0 to 256 μg/mL), as well their equivalent in […], being: 1 (0 to 806.7 μM), 2 (0 to 833.0 μM), 3 (0 to 923.0 μM), 4 (0 to 832.8 μM) and 5 (0 to 923.1 μM).
A suspension of O^+ human erythrocytes (3% hematocrit and 0.6% of infected erythrocytes) was incubated at 37 °C with 5% of CO2 in air, for 48 or 72 h in RPMI 1640 medium supplemented with 10% human serum, in triplicate, in 96 wells plate, with different concentrations (0 to 256 μg/mL) of compounds (1–5). As positive control, infected erythrocytes were incubated with 8 ng/mL of artesunate (Artemix Ativus, São Paulo, Brazil) and, as negative control, they were incubated exclusively with the diluent (complete RPMI 1640 medium); 50% of the medium, for the cultures incubated for 72 h, was exchanged after 48 h, at the same concentrations as before. After that, 150 μL of the supernatant of the cultures were discarded, and a drop of suspension distended onto slides for microscopy, dried and fixed with methanol, was stained for 15 min with 10% of Giemsa solution (PBS, pH 6.9). The erythrocytes (1000 cells/slide) were analyzed by a single observer with optical microscopy and the results were expressed in percentage of infected cells.
The SI for each amide (1–5) was obtained by dividing the concentration able to eliminate 50% of peritoneal cells (CC50) by the concentration able to inhibit the growth of 50% of the protozoa (IC50). Compounds which presented SI greater than 10 were considered potentially microbicides and safe for the host cells (Bézivin et al. [2003]).

Data set [3] can be described thus: Cytotoxicity to peritoneal cells, MTT method. It is filed as cell-based, Swiss mice. The conditions noted are these: both sexes, Swiss, mouse, peritoneal cells (>99% macrophages), 6 h incubation, read-out: Estimated CC50 peritoneal cell 6 h. How it is done: To obtain peritoneal cells, six adult Swiss mice (male and female), weighing 30 ± 6 g, were used. During the experiments, the animals were kept in the Faculty of Medicine, University of Brasilia under ambient temperature, light/dark cycle of 12 h, fed with balanced diet and water ad libitum. The study was approved by the Ethics Committee on Animal Use (CEUA) of the Institute of Biological Sciences at University of Brasilia (Doc. no. 22199/2014).
To assess inhibitory or cytotoxic concentrations of the compounds (1–5), able to eliminate 50% of the cells in the cultures of L. amazonensis (IC50) and cytotoxic concentrations (CC50) in the cultures of peritoneal cell, MTT [3-(4,5-dimethylthiazol-2-yl)-2,5-diphenyltetrazolium bromide] (Sigma-Aldrich) method was used. This method evaluates the cell viability by the activity of mitochondrial succinate dehydrogenase enzyme that cleaves the tetrazolium salt to form formazan crystals in living cells. […]
Initially, cells obtained by washing the peritoneal cavity of the mice with 10 mL of PBS pH 7.2 at 4 °C, centrifuged at 400 g for 10 min and suspended with 1 mL of RPMI 1640 medium were quantified at Neubauer chamber with 0.05% of nigrosin solution. […] The formazan crystals were solubilized with 50 μL of DMSO/well and the absorbance obtained in spectrophotometer (Spectra Max® Plus 384) with 550 nm. […]

Where “and” joins values, the source holds several entries; their conditions need not be identical. Identical values can stand only once. Like-named read-outs stand apart in the source and are kept apart here.

The term IC50 denotes the concentration at which inhibition is half-maximal. One may read the inhibition as the change of the read-out against control, counted positive when it falls. One may read the CC50 as the concentration giving 50% cytotoxicity.

Turning to `COc1cc(/C=C/C(=O)N2CCC=CC2=O)cc(OC)c1OC` [Compound 1, 1-[(E)-3-(3,4,5-trimethoxyphenyl)prop-2-enoyl]-2,3-dihydropyridin-6-one], the “Selectivity Index (SI) = CC50/IC50, L. amazonensis” value in data set [1] (CC50 peritoneal cells 6 h / IC50 L. amazonensis 6 h) is on record as 1.3. Also, the “Inhibitory activity relative to piperidine analogue (fold)” value in data set [1] (L. amazonensis promastigotes, fold superior to piperidine analogue (IC50 2297.9 μM)) worked out at 4.07 fold. Besides, the IC50 in data set [1] (Leishmania amazonensis, 6 h, read-out: Estimated IC50 L. amazonensis 6 h) is 564 µM and 179 µg/mL; in data set [2] (48 h, read-out: Estimated IC50 P. falciparum 48 h), 19.5 µM and 6.2 µg/mL; in data set [2] (72 h, read-out: Estimated IC50 P. falciparum 72 h), 10.1 µM and 3.2 µg/mL. For the same compound, the inhibition at 64 µg/mL in data set [2] (48 h, read-out: Inhibition of growth of parasites (P. falciparum)) stood at 100%. For the same compound, in data set [2] (72 h, read-out: Inhibition of growth of parasites (P. falciparum)), the inhibition at 8 µg/mL was 100%. For the same compound, the CC50 at 6 h in data set [3] is 731 µM and 232 µg/mL.
As to `CNC[C@H](O)[C@@H](O)[C@H](O)[C@H](O)CO.[O]=[Sb](=[O])[OH]` [N-metilglucamine, antimoniate of N-metilglucamine, reference compound], the “Inhibition of the parasites (L. amazonensis)” value in data set [1] (positive control, 4 μg/mL, 6 h incubation) is recorded as 55.4%.
`C[C@H]1[C@H](OC(=O)CCC(=O)O)O[C@@H]2O[C@@]3(C)CC[C@H]4[C@H](C)CC[C@@H]1[C@@]24OO3` [artesunate, reference compound]: the inhibition at 0.008 µg/mL in data set [2] (48 h incubation, read-out: Inhibition of the parasites (P. falciparum) 48 h) came to 79.8%; in data set [2] (72 h incubation, read-out: Inhibition of the parasites (P. falciparum) 72 h) it was 90%.
For the compound `COc1cc(C=CC(=O)N2CCCCC2)cc(OC)c1OC` [piperidine analogue], the IC50 in data set [1] (previous screening, data not shown, read-out: IC50 on growth of L. amazonensis promastigotes) turned out to be 2300 µM.

Source of the values: paper PMC6130495, “Effect of piplartine and cinnamides on Leishmania amazonensis, Plasmodium falciparum and on peritoneal cells of Swiss mice” (Pharmaceutical Biology, 2017).
